Read-outs that look alike come from different tables or passages of the source. Blank lines part the entries; values can stand above or below the compound they belong to. Residues, ends and D or L forms follow the SMILES beside them. *: point of attachment. X26 = C[C@H](COC(=O)N1CCC[C@@H](c2ccc(-n3cc4cccc(C(N)=O)c4n3)cc2)C1)S*; X10 = Cc1cc(COC(=O)N(C)Cc2ccc(-c3[nH]c4cc(F)cc5c4c3CCNC5=O)cc2)ccc1S*; X15 = Cc1cc(S*)ccc1COC(=O)N(C)Cc1ccc(-c2[nH]c3cc(F)cc4c3c2CCNC4=O)cc1; X3 = CN(Cc1ccc(-c2[nH]c3cc(F)cc4c3c2CCNC4=O)cc1)C(=O)OCc1ccc(S*)cc1; X12 = C[C@H](COC(=O)N(C)Cc1ccc(-c2[nH]c3cc(F)cc4c3c2CCNC4=O)cc1)S*; X18 = CNCc1ccc(-c2c3c4c(cc(F)cc4n2CNC(=O)OCCS*)C(=O)NCC3)cc1
Target: PARP (Homo sapiens, UniProt P09874)
Experiment: Enzymatic Assay 2: HT Universal Chemiluminescent PARP Assay of cleaved compounds;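 also: PARP reaction with activated DNA run 1 h at room temperature, product detected via streptavidin-HRP and luminescence endpoint reading on a plate reader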
[1] = read-out: IC50 Enzymatic Assay 2, Examples cleaved per Example A (crude cleavage solution), R^8H starting materials as such

Sequence of PARP (P09874 whole entry): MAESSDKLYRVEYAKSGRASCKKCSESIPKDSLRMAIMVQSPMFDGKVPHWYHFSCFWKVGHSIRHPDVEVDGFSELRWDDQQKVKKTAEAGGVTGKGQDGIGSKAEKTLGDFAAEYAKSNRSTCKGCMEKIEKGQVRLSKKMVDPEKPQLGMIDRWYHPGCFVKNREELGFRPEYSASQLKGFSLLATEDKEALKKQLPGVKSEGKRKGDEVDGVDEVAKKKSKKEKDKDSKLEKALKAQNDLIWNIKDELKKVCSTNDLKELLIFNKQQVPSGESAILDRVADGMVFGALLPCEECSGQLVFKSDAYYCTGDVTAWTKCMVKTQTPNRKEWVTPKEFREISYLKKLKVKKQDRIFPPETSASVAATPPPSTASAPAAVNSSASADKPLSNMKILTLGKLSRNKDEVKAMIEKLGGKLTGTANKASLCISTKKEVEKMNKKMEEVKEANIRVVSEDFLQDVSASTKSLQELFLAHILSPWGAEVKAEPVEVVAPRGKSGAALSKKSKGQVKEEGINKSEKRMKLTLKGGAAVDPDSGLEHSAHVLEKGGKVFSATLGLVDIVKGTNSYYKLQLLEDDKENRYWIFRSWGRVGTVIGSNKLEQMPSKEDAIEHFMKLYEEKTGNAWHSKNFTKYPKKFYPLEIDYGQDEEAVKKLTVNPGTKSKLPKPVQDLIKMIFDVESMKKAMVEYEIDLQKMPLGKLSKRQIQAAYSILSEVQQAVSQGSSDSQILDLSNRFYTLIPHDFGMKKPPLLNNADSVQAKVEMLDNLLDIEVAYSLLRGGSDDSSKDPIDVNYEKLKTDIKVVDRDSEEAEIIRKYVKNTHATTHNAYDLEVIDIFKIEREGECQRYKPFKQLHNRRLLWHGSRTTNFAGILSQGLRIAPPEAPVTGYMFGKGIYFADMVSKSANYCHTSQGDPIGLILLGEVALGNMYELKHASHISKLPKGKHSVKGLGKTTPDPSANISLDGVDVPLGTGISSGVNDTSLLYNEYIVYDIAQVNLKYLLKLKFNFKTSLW

SMILES: CC[C@H](C)[C@H](NC(=O)[C@@H]1CCCN1C(=O)[C@H](CC(N)=O)NC(=O)[C@H](CCC(N)=O)NC(=O)[C@H](CCC(=O)O)NC(=O)[C@H](C)N)C(=O)N[C@@H](Cc1ccc(O)cc1)C(=O)N[C@@H](Cc1c[nH]c2ccccc12)C(=O)N[C@@H](C)C(=O)N[C@@H](CCCNC(=N)N)C(=O)N[C@@H](Cc1ccc(O)cc1)C(=O)N[C@@H](C)C(=O)N[C@@H](CC(=O)O)C(=O)N[C@@H](Cc1c[nH]c2ccccc12)C(=O)N[C@@H](CC(C)C)C(=O)N[C@@H](Cc1ccccc1)C(=O)N[C@H](C(=O)N[C@H](C(=O)N1CCC[C@H]1C(=O)N[C@@H](CC(C)C)C(=O)N[C@@H](CC(C)C)C(=O)N[C@@H](CC(C)C)C(=O)N[C@@H](CC(C)C)C(=O)N[C@@H](CC(=O)O)C(=O)N[C@@H](CC(C)C)C(=O)N[C@@H](C)C(=O)N[C@@H](CC(C)C)C(=O)N[C@@H](CC(C)C)C(=O)N[C@H](C(=O)N[C@@H](CC(=O)O)C(=O)N[C@@H](C)C(=O)N[C@@H](CC(=O)O)C(=O)N[C@@H](CCC(=O)O)C(=O)N[C@@H](CSSc1ccc(COC(=O)N(C)Cc2ccc(-c3[nH]c4cc(F)cc5c4c3CCNC5=O)cc2)cc1)C(=O)NCC(=O)O)C(C)C)[C@@H](C)O)[C@@H](C)O [Example 28] (H-AEQNPIYWARYADWLFTTPLLLLDLALLVDADEC(X3)G-OH; N-terminus and C-terminus assumed)
IC50 [1]: 2.4 nM

SMILES: CC(C)C[C@H](NC(=O)[C@H](Cc1ccc(O)cc1)NC(=O)[C@H](C)NC(=O)[C@H](CCCNC(=N)N)NC(=O)[C@H](Cc1c[nH]c2ccccc12)NC(=O)[C@@H]1CCCN1C(=O)[C@H](CC(N)=O)NC(=O)[C@H](CCC(N)=O)NC(=O)[C@H](CC(=O)O)NC(=O)[C@H](CC(=O)O)NC(=O)[C@H](C)N)C(=O)N[C@@H](CC(=O)O)C(=O)N[C@@H](CC(C)C)C(=O)N[C@@H](CC(C)C)C(=O)N[C@@H](Cc1ccccc1)C(=O)N1CCC[C@H]1C(=O)N[C@H](C(=O)N[C@@H](CC(=O)O)C(=O)N[C@H](C(=O)N[C@@H](CC(C)C)C(=O)N[C@@H](CC(C)C)C(=O)N[C@@H](CC(C)C)C(=O)N[C@@H](CC(=O)O)C(=O)N[C@@H](CC(C)C)C(=O)N[C@@H](CC(C)C)C(=O)N[C@@H](Cc1c[nH]c2ccccc12)C(=O)N[C@@H](CSS[C@@H](C)COC(=O)N(C)Cc1ccc(-c2[nH]c3cc(F)cc4c3c2CCNC4=O)cc1)C(=O)NCC(=O)O)[C@@H](C)O)[C@@H](C)O [Example 21]
IC50 [1]: 2.2 nM

SMILES: CC[C@H](C)[C@H](NC(=O)[C@@H]1CCCN1C(=O)[C@H](CC(N)=O)NC(=O)[C@H](CCC(N)=O)NC(=O)[C@H](CCC(=O)O)NC(=O)[C@H](C)N)C(=O)N[C@@H](Cc1ccc(O)cc1)C(=O)N[C@@H](Cc1c[nH]c2ccccc12)C(=O)N[C@@H](C)C(=O)N[C@@H](CCCNC(=N)N)C(=O)N[C@@H](Cc1ccc(O)cc1)C(=O)N[C@@H](C)C(=O)N[C@@H](CC(=O)O)C(=O)N[C@@H](Cc1c[nH]c2ccccc12)C(=O)N[C@@H](CC(C)C)C(=O)N[C@@H](Cc1ccccc1)C(=O)N[C@H](C(=O)N[C@H](C(=O)N1CCC[C@H]1C(=O)N[C@@H](CC(C)C)C(=O)N[C@@H](CC(C)C)C(=O)N[C@@H](CC(C)C)C(=O)N[C@@H](CC(C)C)C(=O)N[C@@H](CC(=O)O)C(=O)N[C@@H](CC(C)C)C(=O)N[C@@H](C)C(=O)N[C@@H](CC(C)C)C(=O)N[C@@H](CC(C)C)C(=O)N[C@H](C(=O)N[C@@H](CC(=O)O)C(=O)N[C@@H](C)C(=O)N[C@@H](CC(=O)O)C(=O)N[C@@H](CCC(=O)O)C(=O)N[C@@H](CSS[C@H](C)COC(=O)N1CCC[C@@H](c2ccc(-n3cc4cccc(C(N)=O)c4n3)cc2)C1)C(=O)NCC(=O)O)C(C)C)[C@@H](C)O)[C@@H](C)O [Example 47] (H-AEQNPIYWARYADWLFTTPLLLLDLALLVDADEC(X26)G-OH; N-terminus and C-terminus assumed)
IC50 [1]: 2.4 nM

SMILES: CC[C@H](C)[C@H](NC(=O)[C@@H]1CCCN1C(=O)[C@H](CC(N)=O)NC(=O)[C@H](CCC(N)=O)NC(=O)[C@H](CCC(=O)O)NC(=O)[C@H](C)N)C(=O)N[C@@H](Cc1ccc(O)cc1)C(=O)N[C@@H](Cc1c[nH]c2ccccc12)C(=O)N[C@@H](C)C(=O)N[C@@H](CCCNC(=N)N)C(=O)N[C@@H](Cc1ccc(O)cc1)C(=O)N[C@@H](C)C(=O)N[C@@H](CC(=O)O)C(=O)N[C@@H](Cc1c[nH]c2ccccc12)C(=O)N[C@@H](CC(C)C)C(=O)N[C@@H](Cc1ccccc1)C(=O)N[C@H](C(=O)N[C@H](C(=O)N1CCC[C@H]1C(=O)N[C@@H](CC(C)C)C(=O)N[C@@H](CC(C)C)C(=O)N[C@@H](CC(C)C)C(=O)N[C@@H](CC(C)C)C(=O)N[C@@H](CC(=O)O)C(=O)N[C@@H](CC(C)C)C(=O)N[C@@H](C)C(=O)N[C@@H](CC(C)C)C(=O)N[C@@H](CC(C)C)C(=O)N[C@H](C(=O)N[C@@H](CC(=O)O)C(=O)N[C@@H](C)C(=O)N[C@@H](CC(=O)O)C(=O)N[C@@H](CCC(=O)O)C(=O)N[C@@H](CSSc1ccc(COC(=O)N(C)Cc2ccc(-c3[nH]c4cc(F)cc5c4c3CCNC5=O)cc2)cc1C)C(=O)NCC(=O)O)C(C)C)[C@@H](C)O)[C@@H](C)O [Example 29] (H-AEQNPIYWARYADWLFTTPLLLLDLALLVDADEC(X10)G-OH; N-terminus and C-terminus assumed)
IC50 [1]: 6.4 nM

SMILES: CC[C@H](C)[C@H](NC(=O)[C@@H]1CCCN1C(=O)[C@H](CC(N)=O)NC(=O)[C@H](CCC(N)=O)NC(=O)[C@H](CCC(=O)O)NC(=O)[C@H](C)N)C(=O)N[C@@H](Cc1ccc(O)cc1)C(=O)N[C@@H](Cc1c[nH]c2ccccc12)C(=O)N[C@@H](C)C(=O)N[C@@H](CCCNC(=N)N)C(=O)N[C@@H](Cc1ccc(O)cc1)C(=O)N[C@@H](C)C(=O)N[C@@H](CC(=O)O)C(=O)N[C@@H](Cc1c[nH]c2ccccc12)C(=O)N[C@@H](CC(C)C)C(=O)N[C@@H](Cc1ccccc1)C(=O)N[C@H](C(=O)N[C@H](C(=O)N1CCC[C@H]1C(=O)N[C@@H](CC(C)C)C(=O)N[C@@H](CC(C)C)C(=O)N[C@@H](CC(C)C)C(=O)N[C@@H](CC(C)C)C(=O)N[C@@H](CC(=O)O)C(=O)N[C@@H](CC(C)C)C(=O)N[C@@H](C)C(=O)N[C@@H](CC(C)C)C(=O)N[C@@H](CC(C)C)C(=O)N[C@H](C(=O)N[C@@H](CC(=O)O)C(=O)N[C@@H](C)C(=O)N[C@@H](CC(=O)O)C(=O)N[C@@H](CCC(=O)O)C(=O)N[C@@H](CSSCCOC(=O)NCn1c(-c2ccc(CNC)cc2)c2c3c(cc(F)cc31)C(=O)NCC2)C(=O)NCC(=O)O)C(C)C)[C@@H](C)O)[C@@H](C)O [Example 33] (H-AEQNPIYWARYADWLFTTPLLLLDLALLVDADEC(X18)G-OH; N-terminus and C-terminus assumed)
IC50 [1]: 2.3 nM

IC50: 1 nM
SMILES: C[C@]12CCCN1C1=NNC(=O)c3cc(F)cc4[nH]c(c1c34)C2 [R^8H-17, reference compound]

SMILES: CC[C@H](C)[C@H](NC(=O)[C@@H]1CCCN1C(=O)[C@H](CC(N)=O)NC(=O)[C@H](CCC(N)=O)NC(=O)[C@H](CCC(=O)O)NC(=O)[C@H](C)N)C(=O)N[C@@H](Cc1ccc(O)cc1)C(=O)N[C@@H](Cc1c[nH]c2ccccc12)C(=O)N[C@@H](C)C(=O)N[C@@H](CCCNC(=N)N)C(=O)N[C@@H](Cc1ccc(O)cc1)C(=O)N[C@@H](C)C(=O)N[C@@H](CC(=O)O)C(=O)N[C@@H](Cc1c[nH]c2ccccc12)C(=O)N[C@@H](CC(C)C)C(=O)N[C@@H](Cc1ccccc1)C(=O)N[C@H](C(=O)N[C@H](C(=O)N1CCC[C@H]1C(=O)N[C@@H](CC(C)C)C(=O)N[C@@H](CC(C)C)C(=O)N[C@@H](CC(C)C)C(=O)N[C@@H](CC(C)C)C(=O)N[C@@H](CC(=O)O)C(=O)N[C@@H](CC(C)C)C(=O)N[C@@H](C)C(=O)N[C@@H](CC(C)C)C(=O)N[C@@H](CC(C)C)C(=O)N[C@H](C(=O)N[C@@H](CC(=O)O)C(=O)N[C@@H](C)C(=O)N[C@@H](CC(=O)O)C(=O)N[C@@H](CCC(=O)O)C(=O)N[C@@H](CSS[C@H](C)COC(=O)N(C)Cc1ccc(-c2[nH]c3cc(F)cc4c3c2CCNC4=O)cc1)C(=O)NCC(=O)O)C(C)C)[C@@H](C)O)[C@@H](C)O [Example 19] (H-AEQNPIYWARYADWLFTTPLLLLDLALLVDADEC(X12)G-OH; N-terminus and C-terminus assumed)
IC50 [1]: 2.2 nM

SMILES: CC[C@H](C)[C@H](NC(=O)[C@@H]1CCCN1C(=O)[C@H](CC(N)=O)NC(=O)[C@H](CCC(N)=O)NC(=O)[C@H](CCC(=O)O)NC(=O)[C@H](C)N)C(=O)N[C@@H](Cc1ccc(O)cc1)C(=O)N[C@@H](Cc1c[nH]c2ccccc12)C(=O)N[C@@H](C)C(=O)N[C@@H](CCCNC(=N)N)C(=O)N[C@@H](Cc1ccc(O)cc1)C(=O)N[C@@H](C)C(=O)N[C@@H](CC(=O)O)C(=O)N[C@@H](Cc1c[nH]c2ccccc12)C(=O)N[C@@H](CC(C)C)C(=O)N[C@@H](Cc1ccccc1)C(=O)N[C@H](C(=O)N[C@H](C(=O)N1CCC[C@H]1C(=O)N[C@@H](CC(C)C)C(=O)N[C@@H](CC(C)C)C(=O)N[C@@H](CC(C)C)C(=O)N[C@@H](CC(C)C)C(=O)N[C@@H](CC(=O)O)C(=O)N[C@@H](CC(C)C)C(=O)N[C@@H](C)C(=O)N[C@@H](CC(C)C)C(=O)N[C@@H](CC(C)C)C(=O)N[C@H](C(=O)N[C@@H](CC(=O)O)C(=O)N[C@@H](C)C(=O)N[C@@H](CC(=O)O)C(=O)N[C@@H](CCC(=O)O)C(=O)N[C@@H](CSSc1ccc(COC(=O)N(C)Cc2ccc(-c3[nH]c4cc(F)cc5c4c3CCNC5=O)cc2)c(C)c1)C(=O)NCC(=O)O)C(C)C)[C@@H](C)O)[C@@H](C)O [Example 30] (H-AEQNPIYWARYADWLFTTPLLLLDLALLVDADEC(X15)G-OH; N-terminus and C-terminus assumed)
IC50 [1]: 2.9 nM
